Measured values reported in ChEMBL document CHEMBL3580640, “Design, Synthesis, and Structure-Activity Relationships of Pyridine-Based Rho Kinase (ROCK) Inhibitors” (J Med Chem, 2015).

Experiments:
Format in all cases: ADME, organism-based
Details in all cases: in vivo
[1] = Cmax in iv dosed rat; set-up: route intravenous
[2] = Half life in po dosed rat
Rattus norvegicus [3] = experiment: Volume of distribution at steady state in iv dosed rat
[4] = Oral bioavailability in rat
[5] = Cmax in po dosed rat; set-up: route oral
Rattus norvegicus [6] = experiment: Clearance in iv dosed rat
[7] = AUC in po dosed rat
Rattus norvegicus [8] = experiment: Half life in iv dosed rat
[9] = Tmax in po dosed rat
[10] = AUC in iv dosed rat

- Cmax [1]: 2.92 µg/mL
- half-life [2]: 3.4 h
- Vdss (Rattus norvegicus [3]): 0.675 L/kg
- bioavailability [4]: 69%
- Cmax [5]: 3.2 µg/mL
- clearance (Rattus norvegicus [6]): 0.207 L/h/kg
- AUC [7]: 32.6 µg·h/mL
- t1/2 (Rattus norvegicus [8]): 2.6 h
- Tmax [9]: 3 h
- AUC [10]: 4.31 µg·h/mL
Structure (SMILES): CS(=O)(=O)Nc1cccc(CC(=O)Nc2cc(-c3ccnc(F)c3)cs2)c1
